In paper PMC7809749, “Tumor vasculature-targeted ^10B delivery by an Annexin A1-binding peptide boosts effects of boron neutron capture therapy” (BMC Cancer, 2021):

What was measured:
[1] = tested on: MBT2 bladder tumor-bearing C3H/He mice; experiment: ^10B concentration in tumors and normal organs by prompt gamma-ray analysis; type: in vivo, mouse; conditions: for Intratumoral ^10B concentration: IF7 conjugates 7 mg/kg, fructose-^10BPA 0.791 mg/kg, ^10BSH 0.868 mg/kg, MBT2 tumor; for Intratumoral ^10B concentration / ^10B tumor/blood (T/B) ratio: mean ± SD; for ^10B tumor/blood (T/B) ratio: same doses; for Tumor/blood (T/B) ratio, range: by 40 min after injection (range over 5-40 min); for Intratumoral concentration reached: ultralow dose 7 mg/kg iv, MBT2 tumor-bearing mice, discussion summary
Experimental: MBT2 cells (1 × 10^6 cells per mouse) plus 50 μl Matrigel (Corning Inc., NY, USA) were injected subcutaneously using a 27-gauge needle into the right thighs of 8-week-old female C3H/He mice under anesthesia with 2% isoflurane inhalation. The day of injection was defined as day 0. At 4 weeks after MBT2 cells injection, when MBT2 tumors were palpable, mice were randomly divided into four groups of 16 mice each and injected intravenously with: 1) fructose-^10BPA ((0.791 mg/kg), 2) IF7C(^10BPA)RR (7 mg/kg), 3) ^10BSH 0.868 mg/kg), or 4) IF7K(^10BSH)RR (7 mg/kg). Within 5, 10, 20, and 40 min of injection, four mice at each time point were sacrificed by cervical dislocation under anesthesia with 2% isoflurane inhalation. From each mouse, the tumor, brain, lung, heart, liver, kidney, bladder, stomach, intestine, spleen, skin, muscles, and blood were collected in a Teflon tube for ^10B measurement. ^10B concentrations in tissues were measured by prompt gamma-ray spectrometry using a thermal neutron guide tube installed at the Institute for Integrated Radiation and Nuclear Science, Kyoto University (KURNS).

[2] = tested on: murine MBT2 bladder tumor; experiment: Nuclear reactor-based BNCT of MBT2 bladder tumor-bearing mice; type: in vivo, mouse; conditions: compound-mediated BNCT: 10 mg/kg iv 40 min before neutron irradiation (60 min, 1 MW); MBT2, n = 3; mean ± SD
Experimental: MBT2 cells were injected as described above into the right thighs of 8-week-old female C3H/He mice, and the day of injection defined as day 0. Four weeks later, when MBT2 tumors were palpable, mice were randomly divided into six groups of 3 mice each: 1) untreated control, 2) IF7C(^10BPA)RR, 3) IF7K(^10BSH)RR, 4) neutron-irradiated controls, 5) IF7C(^10BPA)RR-mediated BNCT, and 6) IF7K(^10BSH)RR-mediated BNCT. In Groups 4, 5, and 6, tumors in right thighs were subjected to neutron beam irradiation at the heavy water facility of KURNS Research Reactor for 60 min at a power of 1 MW. Each mouse was held within an acrylic holder during neutron irradiation, and a LiF plate (50 mm thick) was used to shield the body from thermal neutrons, while exposing the tumor. Neutron fluences were measured by radioactivation of gold foils (3 mm diameter; 0.05 mm thick) on surface of both sides of the tumors. Since thermal neutrons were rapidly attenuated in the tumor, the average thermal neutron fluences of both sides were adopted as the fluence irradiated to the tumors. In this study, tumors were irradiated by 1.9 × 10^12 thermal neutrons/cm^2. Thermoluminescent dosimeters for γ-ray dosimetry were attached to tumor surfaces. […] Tumor size was measured using calipers, and tumor volume (V) was calculated as: V = ab^2/2, where a and b are the major and minor axes, respectively. […]

[3] = tested on: human YTS-1 bladder tumor xenograft; experiment: Cyclotron accelerator-based BNCT of human YTS-1 xenograft mice; type: in vivo; conditions: mean ± SD; for Tumor volume at 4 weeks after start of first BNCT: compound injection without neutron irradiation, YTS-1 xenograft, nude mice, n = 8; for Tumor volume at 4 weeks: compound-mediated BNCT, 20 mg/kg iv 40 min before irradiation, two treatments one week apart, YTS-1, n = 8
Experimental: YTS-1 cells (2 × 10^6 cells per mouse) plus 50 μl Matrigel (Corning Inc.) were injected subcutaneously using a 27-gauge needle into the right thighs of 8-week-old female BALB/c nu/nu mice under anesthesia with 2% isoflurane inhalation. The day of injection was defined as day 0. One week later, when YTS-1 xenografts were palpable, mice were randomly divided into six groups of 8 mice each: 1) untreated control, 2) […], 4) neutron-irradiated controls, 5) IF7C(^10BPA)RR-mediated BNCT, and 6) IF7K(^10BSH)RR-mediated BNCT. In Groups 4, 5, and 6, tumors in thighs were subjected to neutron beam irradiation at the cyclotron-typed accelerator (Sumitomo Heavy Industries Ltd.) in the Aomori Prefecture Quantum Science Center for 60 min at a power of […] at 20 MeV. Radiation of mice was performed as described above. The average of the γ-ray dose was 0.23 Gy. Groups 5 and 6, IF7C(^10BPA)RR or IF7K(^10BSH)RR was administered intravenously 40 min before irradiation at a dose of 20 mg/kg. One week after the first BNCT, the second was administered using both the same method and irradiation method. The tumor size and volume was calculated as above. Four weeks after the first BNCT, all mice were sacrificed by cervical dislocation under anesthesia with 2% isoflurane inhalation, and tumors were weighed and prepared for immunohistochemical analysis.

[4] = tested on: human YTS-1 xenograft tumors; experiment: Immunohistochemistry of YTS-1 xenografts (HE, CD8α, CD31, Ki-67, Anxa1); type: in vivo; conditions: 3 weeks after second BNCT; for Number of CD8-positive lymphocytes per tumor area / Ki-67 proliferation index: mean ± SD; for Anxa 1 expression vs untreated, compound-only and neutron-irradiated controls: IHC
Experimental: BNCT-treated YTS-1 tumors were collected as described above, fixed in 20% formalin solution and embedded in paraffin. Tissue sections 4 μm thick were mounted on silane-coated glass slides and air-dried for 1 h. Deparaffinized tissue sections underwent heat-induced epitope retrieval using a Histofine antigen retrieval reagent (pH 6.0) (Nichirei Biosciences Inc. Tokyo, Japan) and were then incubated with anti-human Ki-67 antigen (clone MIB-1, 1:2000 dilution) or mouse anti-Anxa1 monoclonal antibody (clone MC16, 1:100 dilution) in phosphate-buffered saline (PBS) containing 5% bovine serum albumin (BSA) at 4 °C overnight. Other sections were treated with heat-induced epitope retrieval with Histofine antigen retrieval reagent (pH 9.0) (Nichirei Biosciences Inc.) and then incubated with rabbit anti-mouse CD8α (antibody (EPR21769, 1:2000 dilution) or anti-mouse CD31 (EPR17259, 1:2000 dilution) in PBS containing 5% BSA at 4 °C overnight. The Envision/HRP rabbit mouse kit was used for antibody detection (Agilent Technologies Japan., Tokyo, Japan). Nuclear counterstaining was performed by incubating sections with hematoxylin solution (Agilent Technologies Japan) for 2 min at room temperature. Eosin alcohol solution (Fujifilm Wako Pure Chemical Corporation) was used to perform HE staining, according to the manufacturer’s instruction. Images (10× objective) were captured using a Keyence BZ-9000 fluorescence microscope (Keyence, Tokyo, Japan) and BZ-II analyzer Ver 2.2 (Keyence). The white balance was adjusted for each specimen.
Six complete and non-overlapping tumor regions of interest (ROI) were selected from each case and saved as .tif files. The number of diaminobenzidine (DAB)-stained nuclei was determined in the ROI using color deconvolution and the particle analysis plug-in of the Fiji platform (ImageJ distribution, http://fiji.sc/Fiji). The mean number of CD8-positive lymphocytes in all six fields was used for statistical analysis. The number of diaminobenzidine (DAB)-stained blood vessels was counted in a ROI using the color deconvolution plug-in of the Fiji platform (ImageJ distribution, http://fiji.sc/Fiji). The mean number of CD31-positive blood vessels in all six fields was used for statistical analysis.
As above, six complete and non-overlapping tumor regions of interest (ROI) were selected and saved as .tif files, and diaminobenzidine (DAB)- and hematoxylin-stained nuclei were counted. Ki-67-positive nuclei were included in the count, regardless of staining intensity, in line with recommendations of the International Ki-67 in Breast Cancer Working Group. The number of DAB-stained nuclei was divided by the sum of DAB- and hematoxylin-stained nuclei, and values were expressed as a percentage. The mean percentage of Ki-67-positive cells in all six field was used for statistical analysis.

tumor = conditions: after intravenous injection; cited from earlier work
[5] = cited from earlier work
Experimental: To facilitate esterase-aided ^10BPA release following delivery to a tumor, we conjugated IF7C to ^10BPA via an ester bond with a propanolamine linker. Following analysis of 584 mg of IF7C(^10BPA)RR, we determined its purity to be 99.5% (Fig. S1A). By contrast, to design a conjugate to be internalized by tumor cells, we conjugated IF7K to ^10BSH directly through an uncleavable linker, N-(6-maleimidocaproyloxy) sulfosuccinimide (Sulfo-EMCS). We synthesized a total of 411 mg IF7K(^10BSH)RR, and determined its purity to be 98.8% (Fig. S1B).

[6] = compound injection without neutron irradiation

Row | Substance | Intratumoral ^10B concentration ([1]; 5 min after iv injection) | ^10B tumor/blood (T/B) ratio ([1]; 5 min after iv injection) | Intratumoral ^10B concentration ([1]; 10 min after iv injection) | ^10B tumor/blood (T/B) ratio ([1]; 10 min after iv injection) | Intratumoral ^10B concentration ([1]; 20 min after iv injection) | ^10B tumor/blood (T/B) ratio ([1]; 20 min after iv injection) | Intratumoral ^10B concentration ([1]; 40 min after iv injection) | ^10B tumor/blood (T/B) ratio ([1]; 40 min after iv injection) | Tumor/blood (T/B) ratio, range [1] | Intratumoral concentration reached [1] | Tumor volume 3 weeks after BNCT [2] | Tumor volume at 4 weeks after start of first BNCT [3] | Tumor volume at 4 weeks [3] | Number of CD8-positive lymphocytes per tumor area [4, 6] | Histology (HE and CD8α staining) ([4]; compound-mediated BNCT) | Anxa 1 expression vs untreated, compound-only and neutron-irradiated controls ([4]; compound-mediated BNCT) | Ki-67 proliferation index ([4]; compound-mediated BNCT) | Number of CD8-positive lymphocytes per tumor area ([4]; compound-mediated BNCT) | Time for IF7 to target a tumor (tumor) | Solubility in aqueous solution [5]
1 | IFLLWQRC(EMCS-^10BPA)RR [IF7C(^10BPA)RR] | 9.3 ± 6.9 ppm | 3.48 ± 3.49 | 4.6 ± 0.8 ppm | 2.41 ± 0.27 | 19.9 ± 20.4 ppm | 13.54 ± 19.68 | 4.7 ± 0.5 ppm | 2.15 ± 0.50 | 2.15–13.54 | 20 ppm | 2.90 ± 0.49 mm^3 | 965 ± 844 mm^3 | 123 ± 114 mm^3 | 709 ± 328 n/mm^2 | tissue necrosis with infiltration of CD8α-positive lymphocytes | significantly higher | 10.82 ± 6.31% | 4351 ± 1318 n/mm^2 | – | –
2 | borocaptate sodium [^10BSH, reference compound] | 1.6 ± 1.4 ppm | 0.41 ± 0.72 | 7.5 ± 8.7 ppm | 2.46 ± 2.28 | 17.1 ± 12.8 ppm | 8.72 ± 4.98 | 1.7 ± 0.3 ppm | 1.71 ± 1.14 | 0.41–8.72 | – | – | – | – | – | – | – | – | – | – | –
3 | IFLLWQRK(EMCS-^10BSH)RR [IF7K(^10BSH)RR] | 17.8 ± 11.1 ppm | 7.61 ± 8.81 | 27.0 ± 15.3 ppm | 10.92 ± 9.89 | 16.2 ± 16.3 ppm | 5.89 ± 3.57 | 15.4 ± 11.2 ppm | 6.28 ± 7.45 | 5.89–10.92 | 25 ppm | 3111 ± 1769 mm^3 | 1511 ± 921 mm^3 | 69 ± 79 mm^3 | 860 ± 262 n/mm^2 | tissue necrosis with infiltration of CD8α-positive lymphocytes | significantly higher | 9.73 ± 8.39% | 4498 ± 890 n/mm^2 | – | –
4 | IFLLWQR [IF7] | – | – | – | – | – | – | – | – | – | – | – | – | – | – | – | – | – | – | 9 min | poorly soluble
5 | p-Boronophenylalanine [^10BPA, reference compound] | 2.5 ± 4.4 ppm | 0.77 ± 1.33 | 2.6 ± 3.1 ppm | 0.87 ± 0.88 | 0.0 ± 0.0 ppm | 0.0 ± 0.0 | 5.4 ± 5.0 ppm | 3.16 ± 3.35 | 0.00–3.16 | – | – | – | – | – | – | – | – | – | – | –
